The values below are quoted from earlier work in US12138268B2, “Treatment of erectile dysfunction and other indications” (Strategic Science & Technologies, LLC, priority 2009, dated 2024).

In general, pKa refers to the negative logarithm of the acid dissociation constant.

For `CCCOc1ccc(S(=O)(=O)N2CCN(CCO)CC2)cc1-c1nc2c(CCC)cn(CC)c2c(=O)[nH]1` [mirodenafil], the pKa is 6.0.
